Test results published in patent US6436959B1 (priority 1998, dated 2002).

Legend:
opioid delta receptor = biological target: T1, opioid delta receptor (Homo sapiens, UniProt P41143); type: binding
T1 construct: purchased Receptor Biology, Baltimore, Md; host or cells: CHO cells (recombinant, membranes)

δ-opioid receptor = biological target: T2, δ-opioid receptor (Rattus norvegicus, UniProt P33533); details: read-out: Ki in binding to the δ-opioid receptor
T2 construct: the forebrains are homogenized in Tris buffer in a Teflon®-glass homogenizer; from tissue; host or cells: forebrain of male Wistar rats, particulate (membrane) preparation
T2 sequence (P33533 whole entry): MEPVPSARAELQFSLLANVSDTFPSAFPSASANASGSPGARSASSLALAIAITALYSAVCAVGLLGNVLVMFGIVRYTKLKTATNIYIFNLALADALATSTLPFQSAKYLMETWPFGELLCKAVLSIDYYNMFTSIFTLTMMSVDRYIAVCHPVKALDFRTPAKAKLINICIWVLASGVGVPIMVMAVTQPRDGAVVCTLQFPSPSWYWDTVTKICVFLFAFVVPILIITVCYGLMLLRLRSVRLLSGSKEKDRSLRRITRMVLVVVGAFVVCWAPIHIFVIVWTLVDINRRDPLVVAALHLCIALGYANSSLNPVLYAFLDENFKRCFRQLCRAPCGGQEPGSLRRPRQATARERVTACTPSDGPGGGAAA

[1] = tested on: acetylcholine bromide-induced abdominal constriction response; test: Mouse Acetylcholine Bromide-Induced Abdominal Constriction Assay; type: in vivo; details: p.o., 30 minutes before i.p. 5.5 mg/kg acetylcholine bromide, % inhibition of constriction response (% analgesia)
Experimental: C) Mouse Acetylcholine Bromide-Induced Abdominal Constriction Assay
The mouse acetylcholine-induced abdominal constiction assay, as described by Collier et al. in Brit. J. Pharmacol. Chem. Ther., 32: 295-310, 1968, with minor modifications was used to assess analgesic potency of the compounds of formula (I). The test drugs or appropriate vehicles were administered orally (p.o.) and 30 minutes later the animal received an intraperitoneal (i.p.) injection of 5.5 mg/kg acetylcholine bromide (Matheson, Coleman and Bell, East Rutherford, N.J.). The mice were then placed in groups of three into glass bell jars and observed for a ten minute observation period for the occurrence of an abdominal constriction response (defined as a wave of constriction and elongation passing caudally along the abdominal wall, accompanied by a twisting of the trunk and followed by extension of the hind limbs). The percent inhibition of this response to a nociceptive stimulus (equated to % analgesia) was calculated as follows: The % inhibition of response, i.e., % analgesia is equal to the difference between the No. of control animal responses and the No. of drug-treated animal responses times 100 divided by the No. of control animals responding.

μ-opioid receptor = μ-opioid receptor (Rattus norvegicus, UniProt P33535); details: read-out: Ki in binding to the μ-opioid receptor; rat forebrain preparation, [3H]DAMGO, 25° C.
Sequence of μ-opioid receptor (P33535 whole entry): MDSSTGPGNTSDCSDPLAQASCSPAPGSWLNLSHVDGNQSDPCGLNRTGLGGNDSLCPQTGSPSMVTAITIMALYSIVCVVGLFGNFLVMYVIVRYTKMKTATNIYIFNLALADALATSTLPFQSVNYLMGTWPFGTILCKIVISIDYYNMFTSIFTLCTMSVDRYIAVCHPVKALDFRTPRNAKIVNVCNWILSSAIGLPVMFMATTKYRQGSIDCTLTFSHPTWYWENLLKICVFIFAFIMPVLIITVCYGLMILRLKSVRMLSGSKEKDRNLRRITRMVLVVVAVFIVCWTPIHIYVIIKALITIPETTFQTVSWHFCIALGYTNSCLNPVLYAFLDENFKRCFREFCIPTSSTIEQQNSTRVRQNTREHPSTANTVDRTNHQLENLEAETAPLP

T1 sequence (P41143 whole entry): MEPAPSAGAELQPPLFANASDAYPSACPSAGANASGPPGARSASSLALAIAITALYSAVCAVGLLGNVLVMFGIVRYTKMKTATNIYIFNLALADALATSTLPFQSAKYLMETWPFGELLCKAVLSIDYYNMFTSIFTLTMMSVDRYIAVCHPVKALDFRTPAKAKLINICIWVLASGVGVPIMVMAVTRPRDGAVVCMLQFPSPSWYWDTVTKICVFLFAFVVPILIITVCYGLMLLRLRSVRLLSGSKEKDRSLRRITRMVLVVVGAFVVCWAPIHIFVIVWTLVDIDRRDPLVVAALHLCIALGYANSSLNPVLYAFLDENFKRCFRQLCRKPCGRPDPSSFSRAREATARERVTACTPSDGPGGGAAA

For `CCCN1CCC(N(c2ccccc2)c2cccc(C(=O)N(C)c3ccccc3)c2)CC1.O=C(O)/C=C/C(=O)O` [C4, N-Methyl-N-phenyl-3-[phenyl(1-propylpiperidin-4-yl)amino]benzamide Fumarate[1:1.4]], the “% I @ 25 μM” value (opioid delta receptor) was 41%, the Ki (δ-opioid receptor) was 0.025 µM and the ED50 [1] was 4.2 µmol/kg. For the same molecule, the Ki (μ-opioid receptor) was 0.153 µM.
